{
  "source": "patent US10793892B2",
  "about": "“Method for detecting the presence of expanded spectrum β-lactamase-producing bacteria in a sample” (INSERM (INSTITUT NATIONAL DE LA SANTE ET DE LA RECHERCHE …, priority 2011, dated 2020)",
  "key": {"E. cloacae": {"system": "E. cloacae", "test": "ESBL NDP test using spiked blood cultures", "type": "biochemical, Enterobacter cloacae", "design": "key: (+) and (−) referred to color change being, red to yellow or unchanged, respectively; (+) and (−) referred to color change being, red to yellow or unchanged, respectively", "description": "(§1) Strains were isolated on Mueller-Hinton agar (Biorad, Marnes-la-Coquette, France) and incubated at 37° C. for 16 h to 24 h before performing the NDP rapid ESBL test as follows. One calibrated inoculated loop (10 μl) of the tested strain was resuspended in 150 μl of 20 mM Tris-HCl lysis buffer previously distributed in Microbead tubes (Ultraclean Microbial DNA isolation kit Bead Tubes, MO BIO Laboratories, Carlsbad, USA). Mechanical lysis of bacteria was performed by strong agitation of Microbead tubes using a vortex adapter (MO BIO Laboratories) for 30 min at room temperature. This bacterial suspension was centrifuged at 10,000×g at room temperature for 5 min. Thirty μl of the supernatant was mixed in a well of a 96-well tray with 100 μl of a 1 ml solution made of 3 mg of purified cefotaxime sodium salt (Sigma-Aldrich, Saint-Quentin-Fallavier, France) in a pH 7.8 phenol red solution. […]. The phenol red solution was made by taking 2 ml of a concentrated pH 8 phenol solution (made from a mixture of phenol red 0.5% in distilled water) to which 16.6 ml of distilled water was added. The pH value was then adjusted to a 7.8 value by adding drops of a 1 N NaOH solution. Mixture of the phenol red solution and the enzymatic suspension being tested was incubated at 37° C. for 30 min. Similarly, culture extracts were analyzed in wells containing cefotaxime and tazobactam (4 mg/ml). Other concentrations of tazobactam and other ß-lactamase inhibitors were tested giving less clear results (data not shown). […] This definition of test positivity will be applied throughout the study.\nRapid detection of ESBL producers was attempted from spiked blood cultures which positivity was assessed using the BactAlert blood culture system (bioMérieux). […] This inoculum was reached after 24-48 h incubation in this BactAlert system. Strains were inoculated into blood culture system in presence of 10 ml of sterile blood. The panel of strains used for spiking blood cultures included either non-ESBL producers (n=24) or ESBL producers (n=64) (Table 4). Spiked blood cultures were made of 1×10^3 CFU of each strain and incubated 24 to 48 h before a positivity of the blood culture was detected by the BactAlert system. Then, 15 ml of spiked blood culture were transferred in a sterile tube and centrifuged at 1,500×g for 3 min to pellet the red blood cells. The supernatant was recovered and centrifuged for 15 min at 4,000×g to pellet the bacteria. The bacterial pellet was then resuspended in 500 μl of distilled water, transferred in 1.5 ml tube and thoroughly vortexed for 15 sec to lyse the remnant red blood cells and wash the bacterial pellet. After 5 min of centrifugation at 10,000×g, the bacterial pellet was resuspended in 150 μl of 20 mM Tris-HCl lysis buffer and distributed in beadtubes. The ESBL NDP test was then applied to this pellet as described above. Experiments were systematically performed in triplicate."}, "E. sakazakii": {"system": "E. sakazakii", "test": "Susceptibility testing, MIC by Etest", "type": "cell-based", "conditions": "overexpressed chromosome-encoded cephalosporinase, n=1", "description": "(§2) Susceptibility testing was performed by determining MIC values using the Etest® (AB bioMérieux; Solna, Sweden) on Mueller-Hinton agar plates at 37° C. and results were recorded according to US guidelines (CLSI), as updated in 2012 (2). The breakpoints for cefotaxime are susceptible (S)≤1 and resistant (R)≥4 μg/ml, and for ceftazidime S≤4 and R≥16 μg/ml."}, "C. brakii": {"system": "C. brakii", "test": "Susceptibility testing, MIC by Etest", "type": "cell-based", "conditions": "C. brakii Wild-type, chromosome-encoded cephalosporinase, n=1", "description": "as §2"}, "S. ficaria [1]": {"system": "S. ficaria", "test": "Susceptibility testing, MIC by Etest", "type": "cell-based", "conditions": "S. ficaria Wild-type, chromosome-encoded cephalosporinase, n=1", "description": "as §2"}, "E. aerogenes": {"system": "E. aerogenes", "test": "ESBL NDP test using cultured strains", "type": "biochemical, Enterobacter aerogenes", "design": "key: (+) and (−) referred to color change being, red to yellow or unchanged, respectively; (+) and (−) referred to color change being, red to yellow or unchanged, respectively", "description": "as §1"}, "P. stuartii": {"system": "P. stuartii", "test": "ESBL NDP test using cultured strains", "type": "biochemical, Providencia stuartii", "design": "key: (+) and (−) referred to color change being, red to yellow or unchanged, respectively; (+) and (−) referred to color change being, red to yellow or unchanged, respectively", "conditions": "P. stuartii TEM-24, n=1", "description": "(§3) Strains were isolated on Mueller-Hinton agar (Biorad, Marnes-la-Coquette, France) and incubated at 37° C. for 16 h to 24 h before performing the NDP rapid ESBL test as follows. One calibrated inoculated loop (10 μl) of the tested strain was resuspended in 150 μl of 20 mM Tris-HCl lysis buffer previously distributed in Microbead tubes (Ultraclean Microbial DNA isolation kit Bead Tubes, MO BIO Laboratories, Carlsbad, USA). Mechanical lysis of bacteria was performed by strong agitation of Microbead tubes using a vortex adapter (MO BIO Laboratories) for 30 min at room temperature. This bacterial suspension was centrifuged at 10,000×g at room temperature for 5 min. Thirty μl of the supernatant was mixed in a well of a 96-well tray with 100 μl of a 1 ml solution made of 3 mg of purified cefotaxime sodium salt (Sigma-Aldrich, Saint-Quentin-Fallavier, France) in a pH 7.8 phenol red solution. […]. The phenol red solution was made by taking 2 ml of a concentrated pH 8 phenol solution (made from a mixture of phenol red 0.5% in distilled water) to which 16.6 ml of distilled water was added. The pH value was then adjusted to a 7.8 value by adding drops of a 1 N NaOH solution. Mixture of the phenol red solution and the enzymatic suspension being tested was incubated at 37° C. for 30 min. Similarly, culture extracts were analyzed in wells containing cefotaxime and tazobactam (4 mg/ml). […]"}, "S. thyphimurium": {"system": "S. thyphimurium", "test": "ESBL NDP test using spiked blood cultures", "type": "biochemical", "design": "key: (+) and (−) referred to color change being, red to yellow or unchanged, respectively; (+) and (−) referred to color change being, red to yellow or unchanged, respectively", "conditions": "S. thyphimurium 10.81, CTX-M-1", "description": "as §3, with “The phenol red solution was made by taking 2 ml of a concentrated pH 8 phenol solution (made from a mixture of phenol red 0.5% in distilled water) to which 16.6 ml of distilled water was added. The pH value was then adjusted to a 7.8 value by adding drops of a 1 N NaOH solution. Mixture of the phenol red solution and the enzymatic suspension being tested was incubated at 37° C. for 30 min.” left out\n(§4) Rapid detection of ESBL producers was attempted from spiked blood cultures which positivity was assessed using the BactAlert blood culture system (bioMérieux). […] Spiked blood cultures were made of 1×10^3 CFU of each strain and incubated 24 to 48 h before a positivity of the blood culture was detected by the BactAlert system. […]"}, "S. ficaria [2]": {"system": "S. ficaria", "test": "ESBL NDP test using spiked blood cultures", "type": "biochemical", "design": "key: (+) and (−) referred to color change being, red to yellow or unchanged, respectively; (+) and (−) referred to color change being, red to yellow or unchanged, respectively", "conditions": "S. ficaria CIP 104255, Wild-type", "description": "as §3, with “The phenol red solution was made by taking 2 ml of a concentrated pH 8 phenol solution (made from a mixture of phenol red 0.5% in distilled water) to which 16.6 ml of distilled water was added. The pH value was then adjusted to a 7.8 value by adding drops of a 1 N NaOH solution. Mixture of the phenol red solution and the enzymatic suspension being tested was incubated at 37° C. for 30 min.” left out\nas §4"}, "C. freundii": {"system": "C. freundii", "test": "ESBL NDP test using spiked blood cultures", "type": "biochemical, Citrobacter freundii", "design": "key: (+) and (−) referred to color change being, red to yellow or unchanged, respectively; (+) and (−) referred to color change being, red to yellow or unchanged, respectively", "conditions": "C. freundii BG 1106 7767, Wild-type", "description": "as §3, with “The phenol red solution was made by taking 2 ml of a concentrated pH 8 phenol solution (made from a mixture of phenol red 0.5% in distilled water) to which 16.6 ml of distilled water was added. The pH value was then adjusted to a 7.8 value by adding drops of a 1 N NaOH solution. Mixture of the phenol red solution and the enzymatic suspension being tested was incubated at 37° C. for 30 min.” left out\nas §4"}, "P. mirabilis [3]": {"system": "P. mirabilis", "test": "Susceptibility testing, MIC by Etest", "type": "cell-based, Proteus mirabilis", "description": "as §2"}, "K. oxytoca": {"system": "K. oxytoca", "test": "Susceptibility testing, MIC by Etest", "type": "cell-based, Klebsiella oxytoca", "conditions": "K. oxytoca Wild-type penicillinase, n=1", "description": "as §2"}, "P. mirabilis [4]": {"system": "P. mirabilis", "test": "ESBL NDP test using cultured strains", "type": "biochemical, Proteus mirabilis", "design": "key: (+) and (−) referred to color change being, red to yellow or unchanged, respectively; (+) and (−) referred to color change being, red to yellow or unchanged, respectively", "description": "as §1"}},
  "data": [
    {"smiles": "CO/N=C(\\C(=O)N[C@@H]1C(=O)N2C(C(=O)O)=C(COC(C)=O)CS[C@H]12)c1csc(N)n1", "note": "[CTX, cefotaxime]", "values": [
      {"measurement": "ESBL NDP Test from: Blood culture", "setting": "E. cloacae; E. cloacae 09.57, SHV-12", "value": "+"},
      {"measurement": "ESBL NDP Test from: Blood culture", "setting": "E. cloacae; E. cloacae 10.75, CTX-M-15", "value": "+"},
      {"measurement": "ESBL NDP Test from: Blood culture", "setting": "E. cloacae; E. cloacae 10.87, CTX-M-15", "value": "+"},
      {"measurement": "ESBL NDP Test from: Blood culture", "setting": "E. cloacae; E. cloacae BG 1106 7725, Wild-type", "value": "−"},
      {"measurement": "ESBL NDP Test from: Blood culture", "setting": "E. cloacae; E. cloacae BG 1106 7746, Wild-type", "value": "−"},
      {"measurement": "ESBL NDP Test from: Blood culture", "setting": "E. cloacae; E. cloacae BG 1107 4118, Wild-type", "value": "−"},
      {"measurement": "MICs range", "setting": "E. sakazakii", "value": ">16", "unit": "µg/mL"},
      {"measurement": "MICs range", "setting": "C. brakii", "value": 0.12, "unit": "µg/mL"},
      {"measurement": "MICs range", "setting": "S. ficaria [1]", "value": 0.12, "unit": "µg/mL"},
      {"measurement": "ESBL NDP Test from: Colonies", "setting": "E. aerogenes; E. aerogenes BN 1113 0225, Wild-type", "value": "−"},
      {"measurement": "ESBL NDP Test from: Colonies", "setting": "E. aerogenes; E. aerogenes E2O15, TEM-121", "value": "−"},
      {"measurement": "Test (color change)", "setting": "E. aerogenes; E. aerogenes TEM-24, n=6", "value": "−"},
      {"measurement": "Test (color change)", "setting": "E. aerogenes; E. aerogenes TEM-121, n=1", "value": "−"},
      {"measurement": "Test (color change)", "setting": "E. aerogenes; E. aerogenes Wild-type, chromosome-encoded cephalosporinase, n=1", "value": "−"},
      {"measurement": "Test (color change)", "setting": "P. stuartii", "value": "−"},
      {"measurement": "ESBL NDP Test from: Blood culture", "setting": "S. thyphimurium", "value": "+"},
      {"measurement": "ESBL NDP Test from: Blood culture", "setting": "S. ficaria [2]", "value": "−"},
      {"measurement": "ESBL NDP Test from: Blood culture", "setting": "C. freundii", "value": "−"},
      {"measurement": "MICs range", "setting": "P. mirabilis [3]; P. mirabilis ACC-1, n=1", "value": ">16", "unit": "µg/mL"},
      {"measurement": "MICs range", "setting": "P. mirabilis [3]; P. mirabilis CTX-M-14, n=1", "value": ">16", "unit": "µg/mL"},
      {"measurement": "MICs range", "setting": "P. mirabilis [3]; P. mirabilis CTX-M-15, n=1", "value": ">16", "unit": "µg/mL"},
      {"measurement": "MICs range", "setting": "P. mirabilis [3]; P. mirabilis PER-1, n=1", "value": ">16", "unit": "µg/mL"},
      {"measurement": "MICs range", "setting": "P. mirabilis [3]; P. mirabilis TEM-21, n=1", "value": 0.25, "unit": "µg/mL"},
      {"measurement": "MICs range", "setting": "P. mirabilis [3]; P. mirabilis TEM-52, n=1", "value": ">16", "unit": "µg/mL"},
      {"measurement": "MICs range", "setting": "K. oxytoca", "value": 0.03, "unit": "µg/mL"},
      {"measurement": "ESBL NDP Test from: Colonies", "setting": "P. mirabilis [4]; P. mirabilis 09.128, TEM-52", "value": "+"},
      {"measurement": "ESBL NDP Test from: Colonies", "setting": "P. mirabilis [4]; P. mirabilis 09.177, TEM-21", "value": "−"},
      {"measurement": "Test (color change)", "setting": "P. mirabilis [4]; P. mirabilis ACC-1, n=1", "value": "−"},
      {"measurement": "ESBL NDP Test from: Colonies", "setting": "P. mirabilis [4]; P. mirabilis BIK, ACC-1", "value": "−"},
      {"measurement": "Test (color change)", "setting": "P. mirabilis [4]; P. mirabilis CTX-M-14, n=1", "value": "+"},
      {"measurement": "Test (color change)", "setting": "P. mirabilis [4]; P. mirabilis CTX-M-15, n=1", "value": "+"},
      {"measurement": "Test (color change)", "setting": "P. mirabilis [4]; P. mirabilis PER-1, n=1", "value": "+"},
      {"measurement": "Test (color change)", "setting": "P. mirabilis [4]; P. mirabilis TEM-21, n=1", "value": "+"},
      {"measurement": "Test (color change)", "setting": "P. mirabilis [4]; P. mirabilis TEM-52, n=1", "value": "+"}
    ]}
  ]
}
